Measured values reported in patent US20030181436A1, “Treatment for AIDS, HIV, and other related diseases and compounds for use therewith” (priority 2001, published 2003).

System: HeLa CD4 LTR B-gal cells
Assay: Attachment assay, toxicity on sister plates by MTS
Type: cell-based
Conditions: for TC50: attachment assay
Experimental: The attachment assay was performed with the HeLa CD4 LTR B-gal cells available from the AIDS Research and Reference Reagent Repository. […] HeLa CD4 LTR B-gal cells express cell surface CD4 and contain an LTR B-galactosidase reporter construct. Upon infection either the Tat protein incorporated into the virion or new Tat produced following virus integration and transcription trans-activate the LTR B-gal reporter, leading to expression of the B-galactosidase enzyme. HeLa CD4 LTR B-gal cells are routinely cultured with the required selection antibiotics and scrended for mycoplasma contamination. Twenty-four h prior to initiation of the assay cells were trypsinized, counted and 1×10^4 cells placed in a 0.2 cm well in media without selection antibiotics. Media was removed and compound media placed on the cells and incubated for 15 to 30 min at 37° C. A known titer of virus was then added to the wells and the incubation continued for 1 h. At the end of the incubation the wells were washed 6 times with media and the culture continued for 48 h. At 48 h the wells were washed one time with PBS and B-galactosidase enzyme expression determined by chemiluminescence per manufacturers instructions (Tropix Gal-screen TM, Tropix, Bedford, Mass.). Compound toxicity was monitored on sister plates using MTS dye reduction.

Zinc Iodiscorbate [Compound Z]
TOXICITY VALUES (Colt Titer) MEAN (0.32 μG/Ml): 0.989 O. D.
TOXICITY VALUES (Colt Titer) MEAN (1 μG/Ml): 0.989 O. D.
TOXICITY VALUES (Colt Titer) MEAN (3.2 μG/Ml): 0.989 O. D.
TOXICITY VALUES (Colt Titer) MEAN (10 μG/Ml): 0.989 O. D.
TOXICITY VALUES (Colt Titer) MEAN (32 μG/Ml): 0.989 O. D.
TOXICITY VALUES (Colt Titer) MEAN (100 μG/Ml): 0.989 O. D.
TC50: greater than 100 μg/mL
TC50 (listed as COMPOUND Z): TC50 (μG/mL) + >100 μg/mL
